How the values were obtained:
EAE in C57BL/6 mice = assay: EAE induced with MOG35-55; type: in vivo
Protocol: EAE was induced in C57BL/6 mice with MOG35-55, and 15-ketocholestene, 15-ketocholestane and 15α-hydroxycholestene were administered at days 0, 4, 7 and 10 after EAE induction (10 μg/mice). AIQ was administered intraperitoneally (60 μg/mice) on daily basis. The course of EAE in these mice is shown as the mean EAE score+s.e.m. (MOG35-55 n=22, MOG35-55+oxChol n=24, MOG35-55+oxChol+AIQ n=18).
Spinal cords were taken on day 19 and stained with hematoxylin and eosin, luxol fast blue or silver stain to quantify the cellular infiltrate, demyelination and axonal loss, respectively. Each column represents the mean±SEM resulting from the analysis of at least 8 sections. Administration of oxChol enhanced EAE as measured clinically (FIG. 4A, P<0.0001, two-way ANOVA), and augmented inflammatory infiltrates (FIG. 4B; P<0.05, one-way ANOVA), demyelination (FIG. 4C; P<0.01, one-way ANOVA) and axonal loss (FIG. 4D; P<0.001, one-way ANOVA); these effects were inhibited by treatment with AIQ (P<0.001, one-way ANOVA).

[1] = system: T cell responses to MOG35-55; assay: T cell responses to MOG35-55 in EAE mice; type: cell-based; conditions: EAE mice given oxChol and AIQ
Protocol: Further investigations were performed to determine whether the effect of oxChol on EAE was mediated by PARP.

[2] = system: IgG reactivity to PLP261-277; assay: Inhibition of RRMS serum IgG reactivity on antigen microarray by pre-incubation with free peptide; type: binding, human; conditions: RRMS sera 1:10 dilution, excess unbound peptide, FIG. 1C
Protocol: RRMS or healthy controls (HC) serum samples were hybridized on antigen microarrays at different concentrations and the mean IgG (FIG. 1A) and IgM (FIG. 1B) reactivity to the CNS, HSP or lipid antigens spotted on the microarrays were measured. Results are presented as mean±SEM of the IgG or IgM reactivity for CNS, HSP or lipid antigens at each dilution. *P<0.05, **P<0.01 and ***P<0.001 (two-way ANOVA) when compared to HC samples tested at the same dilution.
The chips were washed with PBS, blocked for 1 h at 37° C. with 1% BSA, and incubated for 2 hours at 37° C. with a 1:10 dilution of the test serum in blocking buffer under a coverslip in a humid environment. The arrays were then washed and incubated for 45 min at 37° C. with a 1:500 dilution mixture of goat anti-human IgG Cy3-conjugated antibody and a goat anti-human IgM conjugated to Cy5, (both purchased from Jackson ImmunoResearch, West Grove, Pa. The arrays were scanned with a ScanArray 4000× scanner (GSI Luminomics, Billerica, Mass., USA) and the IgM and IgG results were recorded separately. The results were recorded as TIFF files.

| Molecule | inflammatory infiltrates in spinal cord (EAE in C57BL/6 mice; day 19, hematoxylin and eosin, FIG. 4B) | demyelination in spinal cord (EAE in C57BL/6 mice; day 19, luxol fast blue, FIG. 4C) | axonal loss in spinal cord (EAE in C57BL/6 mice; day 19, silver stain, FIG. 4D) | EAE measured clinically (mean EAE score) (EAE in C57BL/6 mice; oxChol 10 μg/mice days 0, 4, 7, 10, AIQ 60 μg/mice i.p. daily, FIG. 4A, P<0.0001) | T cell responses to MOG35-55 as measured by cytokines (IFN-γ and IL-17) or proliferation [1] | reactivity to PLP261-277 on the antigen array after pre-incubation of the serum with peptide [2] |
| --- | --- | --- | --- | --- | --- | --- |
| Nc1cccc2c(=O)[nH]ccc12 [AIQ, 5-Aminoisoquinolinone] | inhibited | inhibited | inhibited | abrogated the worsening of EAE | did not affect |  |
| PLP261-277: proteolipid protein peptide 261-277, used unbound as competitor (ATYNFAVLKLMGRGTKF) |  |  |  |  |  | inhibited |

Reference: patent publication US9267945B2, “Diagnosis of multiple sclerosis” (Yeda Research and Development Co. Ltd., priority 2008, dated 2016)
